Laboratory results reported in US8940704B2, “Advantageous salts of μ-opiate receptor peptides” (Cytogel Pharma, LLC, priority 2007, dated 2015).
Converted amounts (≈) assume the structure as drawn.

Experiments:
[1] = HPLC impurity profile at time zero; assay type: physicochemical
Description: (§1) HPLC Analysis. Salt candidates were analyzed by total area normalization (TAN). The samples were dissolved in acetonitrile:water (90:10) with 0.1% TFA at a free base concentration of 0.3 mg/mL.
(§2) • HPLC column: YMC-Pack ODS-A 150 mm, 4.6 mm, 5 micron • Guard Column (optional) None • Column Temp: 25±1° C. • Sample Temp: ambient • Autosampler Flush: 1:1 Water:CAN • Flow Rate: 1.5 mL/min • Injection Volume: 7 μL • UV Detection: 215 nm • Run Time: 32 minutes • Analysis Time: 32 minutes • Mobil Phase: A—0.1% TFA in water • B—0.1% TFA in CAN • Gradient Puym Program*: […]
The scaled-up aspartate, hydrochloride, lactate, and maleate salts together with the free base were analyzed in duplicate by total area normalization (TAN) to determine their impurity profiles. […] The salts were also stressed in solution using heat.
Samples were prepared at a free base concentration of 0.3 mg/mL. The diluent for all sample preparations was 90:10 acetronitrile:water with 0.1% TFA. All solutions were sonicated for at least five minutes prior to analysis. Analysis was done over four days. The impurity profile of the free base, as shown in the table below, was consistent over this time.
Time Zero. Some observations were made concerning the HPLC impurity profile of the free base and salt samples. First, impurities at 0.89, 0.92, 1.02, and 1.03 RRT (relative retention time) are detected in the time zero sample preparations of the free base and all four salts. The largest of these four impurities is the 1.02 RRT impurity which is between 0.4 and 0.5 area % in all five compounds. The maleate salt also has a very large impurity peak at time zero (2.7 area %) at 1.14 RRT. Thus the maleate salt has a relatively low area % purity of 96 area %.

[2] = Dynamic vapor sorption (DVS); assay type: physicochemical; conditions: 25° C.
Description: Dynamic Vapor Sorption (DVS) (Performed by Surface Measurement Systems Ltd., Allentown, Pa.). Samples were run in an automated dynamic vapor sorption analyzer from 0 to 95% relative humidity and back to 0% relative humidity at 25° C. in 5% RH steps. Samples were predried (to constant mass) under a dry nitrogen stream before analysis. Weight change as a function of humidity and time was recorded to construct a moisture isotherm and kinetic plot of water sorption and desorption. Sample masses were generally in the range of 1-5 mg.

[3] = Solution stability (HPLC total area normalization); assay type: physicochemical; conditions: for Solution stability, 2 weeks at 25° C. / Solution stability, 2 weeks at 40° C. / Solution stability, Time Zero: 90:10 acetonitrile:water with 0.1% TFA; for Solution stability, Time Zero: 0.3 mg/mL
Description: Solution Stability. The four final salt candidates were dissolved (in duplicate) in acetonitrile: water: (90:10) with 0.1% TFA at a concentration of 0.3 mg (free base basis) per mL of solvent. The scintillation vials were sealed. One vial of each salt solution was placed in a 40™C over for 2 weeks. Another vial of each salt solution was stored at 25° C. for 2 week. These solutions (and “time zero” solutions) were analyzed for CYT-1010 by HPLC.
as §1, §2
The solution stability characteristics were evaluated by collecting HPLC data on solutions stored in sealed vials for two weeks at approximately 25 and 40° C. The storage solution consisted of 90:10 acetronitrile:water with 0.1% TFA which is the diluent for the HPLC assay.

[4] = Oxidation stability (pure oxygen atmosphere, HPLC); assay type: physicochemical
Description: Oxidation Stability. Samples of the four final salt candidates were exposed to a pure oxygen atmosphere for 2 weeks to examiner their stability with respect to oxidation at 25° C. Samples were analyzed for CYT-1010 by total area normalization for impurity profile by HPLC.
as §1, §2
Samples of the four salts were exposed to a pure oxygen atmosphere to examine their stability with respect to oxidation at 25° C.

[5] = Photostability (ICH option 2 UV, HPLC); assay type: physicochemical; conditions: for Photostability, 2 weeks UV Exposed: ICH option 2 UV; for Photostability, 2 weeks UV Exposed / Photostability, 2 weeks Dark Control: about 25° C.; for Photostability, 2 weeks Dark Control: covered with aluminum foil; for decrease in area %, photostability: from time zero to UV exposed
Description: Photo Stability. Samples of the four final salt candidates were transferred (in duplicate) to crystallizing dishes and sealed with Saran® wrap. One dish of each salt was also covered with aluminum foil (as the dark controls). Another dish of each salt was not covered with aluminum foil (as the photoexposed samples). The samples were exposed to ICH compliant option 2 UV sources to examine their stability with respect to light at approximately 25° C. Dark controls and time zero samples were also analyzed for comparison. Samples were analyzed for CYT-1010 by HPLC.
as §1, §2
Samples of the four salt candidates were exposed to ICH compliant option 2 UV sources to examine their stability with respect to light at approximately 25° C. Dark controls were also analyzed for comparison.

[6] = Solid state stability (HPLC total area normalization); assay type: physicochemical; conditions: for Solid state stability, 2 weeks at 25° C. / Solid state stability, 2 weeks at 60° C.: sealed vial
Description: Solid State Stability. Power samples of the four final salt candidates were transferred (in duplicate) to scintillation vials and sealed. One vial of each salt was placed in a 60° C. over for 2 week. Another vial of each salt was stored at 25° C. for 2 week. These samples (and “time zero” solutions) were analyzed for CYT-1010 by HPLC.
as §1, §2
The solid state stability characteristics were evaluated by collecting HPLC data on salt samples stored in sealed vials at 25 and 60° C. for two weeks.

[7] = physchem; conditions: aqueous buffer
[8] = molecular target: delta receptors (Homo sapiens, UniProt P41143); conditions: selectivity mu over delta
[9] = 2 weeks pure oxygen atmosphere, 25° C.
[10] = 2 weeks at 25° C. versus time zero
[11] = 2 weeks at 60° C. as compared to 25° C. data

Chain of delta receptors (P41143 whole entry): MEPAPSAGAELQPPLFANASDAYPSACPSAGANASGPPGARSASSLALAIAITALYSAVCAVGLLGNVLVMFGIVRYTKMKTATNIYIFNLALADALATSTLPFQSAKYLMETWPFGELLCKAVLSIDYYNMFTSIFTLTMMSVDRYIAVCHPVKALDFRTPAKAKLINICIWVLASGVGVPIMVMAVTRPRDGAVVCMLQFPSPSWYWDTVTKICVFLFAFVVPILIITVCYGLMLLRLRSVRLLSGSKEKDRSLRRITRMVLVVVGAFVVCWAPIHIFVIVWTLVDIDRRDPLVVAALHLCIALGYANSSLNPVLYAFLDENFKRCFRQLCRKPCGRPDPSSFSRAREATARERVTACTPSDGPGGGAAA

NC(Cc1ccc(O)cc1)C(=O)NC1CCCCNC(=O)C(Cc2ccccc2)NC(=O)C(Cc2c[nH]c3ccccc23)NC1=O [Free Base, H-Tyr-c-[D-Lys-Trp-Phe]]
Impurity by RRT 0.89 [1]: 0.09 area % | Impurity by RRT 0.92 [1]: 0.05 area % | Impurity by RRT 1.02 [1]: 0.53 area % | Impurity by RRT 1.03 [1]: 0.16 area % | DVS water uptake ([2]; by 90% RH): up to 1.7 wt % | Solution stability, 2 weeks at 25° C. ([3]; 2 weeks at 25° C.): 98.6 area % | Solution stability, 2 weeks at 40° C. ([3]; 2 weeks at 40° C.): 98.7 area % | Impurity by RRT 0.21 ([3]; solution, 2 weeks at 25° C.): 0.50 area % | Impurity by RRT 0.89 ([3]; solution, 2 weeks at 25° C.): 0.06 area % | Impurity by RRT 0.92 ([3]; solution, 2 weeks at 25° C.): 0.04 area % | Impurity by RRT 0.95 ([3]; solution, 2 weeks at 25° C.): 0.06 area % | Impurity by RRT 1.02 ([3]; solution, 2 weeks at 25° C.): 0.53 area % | Impurity by RRT 1.03 ([3]; solution, 2 weeks at 25° C.): 0.18 area % | Impurity by RRT 0.21 ([3]; solution, 2 weeks at 40° C.): 0.50 area % | Impurity by RRT 0.89 ([3]; solution, 2 weeks at 40° C.): 0.04 area % | Impurity by RRT 0.95 ([3]; solution, 2 weeks at 40° C.): 0.03 area % | Impurity by RRT 1.02 ([3]; solution, 2 weeks at 40° C.): 0.51 area % | Impurity by RRT 1.03 ([3]; solution, 2 weeks at 40° C.): 0.18 area % | Solution stability, Time Zero [3]: 99.2 area % | Impurity by RRT 0.87 [4, 9]: 0.04 area % | Impurity by RRT 0.89 [4, 9]: 0.30 area % | Impurity by RRT 0.92 [4, 9]: 0.20 area % | Impurity by RRT 0.95 [4, 9]: 0.04 area % | Impurity by RRT 1.02 [4, 9]: 0.53 area % | Impurity by RRT 1.03 [4, 9]: 0.20 area % | Oxidation stability, 2 weeks Oxidation [4, 9]: 97.7 area % | decrease in area %, oxidative stability ([4]; 2 weeks pure oxygen versus time zero): 1.5 area % | Oxidation stability, Time Zero [4]: 99.2 area % | Photostability, 2 weeks UV Exposed [5]: 98.9 area % | Photostability, 2 weeks Dark Control [5]: 99.0 area % | Photostability, Time Zero [5]: 99.2 area % | decrease in area %, photostability [5]: 0.3 area % | decrease in area %, solid state stability [6, 10]: 0.4 area % | decrease in area %, solid state stability [6, 11]: decreased slightly | Solid state stability, Time Zero [6]: 99.2 area % | Solid state stability, 2 weeks at 25° C. [6]: 98.8 area % | Solid state stability, 2 weeks at 60° C. [6]: 98.7 area % | changes in HPLC-TAN values upon exposure to heat, light, or oxygen ([6]; summary of Tables 6-9): did not exhibit significant changes | solubility ([7]; pH 7): < 3 µg/mL | solubility ([7]; pH 10): 6 µg/mL (≈ 9.6 µM)

H-Tyr-Pro-Trp-Phe-NH2 [SEQ ID NO:1]
fold weaker binding to delta receptors than to mu opiate receptor [8]: over 4000 fold

Lactate
Impurity by RRT 0.89 [1]: 0.04 area % | Impurity by RRT 0.92 [1]: 0.08 area % | Impurity by RRT 0.95 [1]: 0.10 area % | Impurity by RRT 1.02 [1]: 0.49 area % | Impurity by RRT 1.03 [1]: 0.13 area % | Impurity by RRT 1.18 [1]: <0.03 area % | DVS water uptake ([2]; 0-70% RH range): 1-3 wt % | DVS water uptake ([2]; by 90% RH): up to 6 wt % | Solution stability, 2 weeks at 25° C. ([3]; 2 weeks at 25° C.): 98.5 area % | Solution stability, 2 weeks at 40° C. ([3]; 2 weeks at 40° C.): 98.5 area % | Impurity by RRT 0.21 ([3]; solution, 2 weeks at 25° C.): 0.59 area % | Impurity by RRT 0.89 ([3]; solution, 2 weeks at 25° C.): 0.05 area % | Impurity by RRT 0.92 ([3]; solution, 2 weeks at 25° C.): 0.11 area % | Impurity by RRT 0.95 ([3]; solution, 2 weeks at 25° C.): 0.14 area % | Impurity by RRT 1.02 ([3]; solution, 2 weeks at 25° C.): 0.49 area % | Impurity by RRT 1.03 ([3]; solution, 2 weeks at 25° C.): 0.15 area % | Impurity by RRT 0.21 ([3]; solution, 2 weeks at 40° C.): 0.62 area % | Impurity by RRT 0.89 ([3]; solution, 2 weeks at 40° C.): 0.04 area % | Impurity by RRT 0.92 ([3]; solution, 2 weeks at 40° C.): 0.04 area % | Impurity by RRT 0.95 ([3]; solution, 2 weeks at 40° C.): 0.14 area % | Impurity by RRT 0.98 ([3]; solution, 2 weeks at 40° C.): <0.03 area % | Impurity by RRT 1.02 ([3]; solution, 2 weeks at 40° C.): 0.50 area % | Impurity by RRT 1.03 ([3]; solution, 2 weeks at 40° C.): 0.16 area % | Impurity by RRT 1.32 ([3]; solution, 2 weeks at 40° C.): <0.03 area % | Impurity by RRT 2.39 ([3]; solution, 2 weeks at 40° C.): <0.03 area % | Solution stability, Time Zero [3]: 99.2 area % | Impurity by RRT 0.87 [4, 9]: <0.03 area % | Impurity by RRT 0.89 [4, 9]: 0.24 area % | Impurity by RRT 0.92 [4, 9]: 0.20 area % | Impurity by RRT 0.95 [4, 9]: 0.13 area % | Impurity by RRT 1.02 [4, 9]: 0.49 area % | Impurity by RRT 1.03 [4, 9]: 0.15 area % | Impurity by RRT 1.18 [4, 9]: <0.03 area % | Oxidation stability, 2 weeks Oxidation [4, 9]: 98.8 area % | Oxidation stability, Time Zero [4]: 99.2 area % | Photostability, 2 weeks UV Exposed [5]: 98.6 area % | Photostability, 2 weeks Dark Control [5]: 99.0 area % | Photostability, Time Zero [5]: 99.2 area % | decrease in area %, photostability [5]: 0.6 area % | decrease in area %, solid state stability [6, 10]: 0.2 area % | decrease in area %, solid state stability [6, 11]: 0.5 area % | Solid state stability, Time Zero [6]: 99.2 area % | Solid state stability, 2 weeks at 25° C. [6]: 99.0 area % | Solid state stability, 2 weeks at 60° C. [6]: 98.5 area %
